In series [1] the test system is HIF-1. Put plainly: Assay of IC50, Hep3B cells (HRE-luciferase transfected). It counts as cell-based. The note with it: Homo sapiens. The source says:
(§1) Six tandem repeats of HRE (hypoxia Responsive Element 5′-ACGTG-3′), which is present in a human VEGF gene, was inserted into the multi-cloning region of a pGL3-basic vector (Promega) containing a luciferase gene as a reporter gene to produce a recombinant pGL3-HRE-luciferase vector which was then used to assay the compounds prepared in the above Examples for inhibition activity against HIF-mediated transcriptional activity.

For series [2], the system named is HIF-1. Put plainly: Assay of IC50, AGS cells (HRE-luciferase transfected). The settings on record: Homo sapiens. The series is classed as cell-based.
Text: as §1

Series [3] deals with HIF-1. Put plainly: Assay of IC50, SK-Hep-1 cells (same manner). The series is classed as cell-based. The settings on record: Homo sapiens, SK-HEP1; SK-Hep-1 cell line, compounds 0.01 to 100 μM for 16 hrs.
Text: as §1

In series [4] the test system is metastatic breast carcinoma cell line MDA-MB-435. The series is described as follows: In vivo anticancer activity in nude mice implanted with MDA-MB-435. The note with it: for inhibition of the growth of the cancer cells compared to the control: once a day, MDA-MB-435 in nude mice. The source says: Female nude mice 5-6 weeks old (Crj:BALB/c nu/nu, Charles River) were bred in germ-free breeding rooms maintained at constant temperature and humidity. The nude mice were anesthetized before incision of the chest skin. The metastatic breast carcinoma cell line MDA-MB-435, obtained from DR D. R. Welch, Univ. Alabama, was implanted at a count of 10^6 cells/mouse into the mammary gland fat pad, and the incisions were then closed with surgical clips. The nude mice were divided into test groups and a control group, each consisting of 6 mice. […] For the control group, Solution A alone was used at a dose of 100 μl once a day. Thereafter, tumor volumes and body weights were measured once a week. Tumor volumes were calculated according to the following Mathematic Formula 1. Tumor Volume (mm^3)=(Length of Long Axis,mm)×(Length of Short Axis,mm)^2×0.5 <Mathematic Formula 1>

A word on the IC50: it is the point on the concentration scale where inhibition reaches its midpoint. Regarding `O=C(COc1ccc(Cl)cc1Cl)Nc1cc(C(=O)NCc2ccco2)ccc1O` [Example 78, 3-[2-(2,4-dichloro-phenoxy)-acetylamino]-N-fan-2-ylmethyl-4-hydroxy-benzamide], the IC50 was 23.2 µM in the series on HIF-1 [1] and greater than 30 µM with HIF-1 [2]. Compound `O=C(COc1ccc(C23CC4CC(CC(C4)C2)C3)cc1)Nc1cc(C(=O)NCc2ccco2)ccn1` [Example 105, 2-[2-(4-adamantan-1-yl-phenoxy)-acetylamino]-N-furan-2-ylmethyl-isonicotinamide] had an IC50 in the series on HIF-1 [3] greater than 30 µM.

As to `O=C(COc1ccc(C23CC4CC(CC(C4)C2)C3)cc1)Nc1cccc(C(=O)NCc2ccco2)c1` [Example 73], the IC50 came to 14.1 µM in the series with HIF-1 [1] and 2 µM in the series on HIF-1 [2].

For `O=C(COc1ccc(C23CC4CC(CC(C4)C2)C3)cc1)Nc1cc(C(=O)O)ccn1` [Example 98, 2-[2-(4-adamantan-1-yl-phenoxy)acetylamino]-isonicotinic acid], the half-inhibitory concentration (IC50) was found to be 1.03 µM in the series on HIF-1 [1] and 2 µM with HIF-1 [3]. In the case of `NC(=O)c1cncc(NC(=O)COc2ccc(C34CC5CC(CC(C5)C3)C4)cc2)c1` [Example 112, 5-[2-(4-adamantan-1-yl-phenoxy)acetylamino]-nicotinamide], the IC50 in the series with HIF-1 [3] came out at 11.9 µM.

As for `O=C(COc1ccc(C23CC4CC(CC(C4)C2)C3)cc1)Nc1cc(C(=O)NCCCN2CCOCC2)ccc1O` [Example 69], the IC50 with HIF-1 [1] and in the series with HIF-1 [2] was greater than 30 µM throughout. As for `O=C(COc1ccc(C23CC4CC(CC(C4)C2)C3)cc1)Nc1cc(C(=O)NCc2ccco2)ccc1O` [Example 67, 3-[2-(4-adamantan-1-yl-phenoxy)-acetylamino]-N-furan-2-ylmethyl-4-hydroxy-benzamide], the IC50 with HIF-1 [1] worked out at 12.6 µM; in the series with HIF-1 [2] it was 5.9 µM. As for `O=C(COc1ccc(I)cc1)Nc1cccc(C(=O)O)c1` [Example 58, 3-[2-(4-iodo-phenoxy)-acetylamino]-benzoic acid], the results for the IC50 in the series on HIF-1 [1] and in the series with HIF-1 [2] were 7.2 µM and 3.5 µM, respectively. For `O=C(COc1ccc(C23CC4CC(CC(C4)C2)C3)cc1)Nc1cccc(C(=O)Nc2ccc3ccccc3c2)c1` [Example 72, 3-[2-(4-adamantan-1-yl-phenoxy)-acetylamino]-N-naphtalene-2-yl-benzamide] the same measures were greater than 30 µM and greater than 30 µM. In the case of `O=C(COc1ccc(C23CC4CC(CC(C4)C2)C3)cc1)Nc1cccc(C(=O)Nc2ccc(Cl)cc2)c1` [Example 70, 3-[2-(4-adamantan-1-ylphenoxy)-acetylamino]-N-(4-chloro-phenyl)-benzamide], the figures for the IC50 with HIF-1 [1] and with HIF-1 [2] were greater than 30 µM and 9.5 µM, respectively. Consider `O=C(COc1ccc(C23CC4CC(CC(C4)C2)C3)cc1)Nc1cncc(C(=O)NCCCn2ccnc2)c1` [Example 103, 5-[2-(4-adamantan-1-yl-phenoxy)-acetylamino]-N-(3-imidazole-1-yl-propyl)nicotinamide], for which, in the series with HIF-1 [3], the IC50 was found to be 1.9 µM.

Take `CN(C)CCNC(=O)c1ccc(O)c(NC(=O)COc2ccc(C34CC5CC(CC(C5)C3)C4)cc2)c1` [Example 68, 3-[2-(4-adamantan-1-yl-phenoxy)-acetylamino]-N-(2-dimethylamino-ethyl)-4-hydroxy-benzamide]: the IC50 in the series on HIF-1 [1] was 51.7 µM; with HIF-1 [2], 3 µM. `COC(=O)c1ccnc(NC(=O)COc2ccc(C34CC5CC(CC(C5)C3)C4)cc2)c1` [Example 86, 2-[2-(4-adamantan-1-yl-phenoxy)acetylamino]-isonicotinic acid methyl ester]: the IC50 in the series on HIF-1 [1] amounted to 1.2 µM; in the series on HIF-1 [2], 2 µM; with HIF-1 [3] it was 1.03 µM. Regarding `NC(=O)c1ccc(O)c(NC(=O)COc2ccc(C34CC5CC(CC(C5)C3)C4)cc2)c1` [Example 65, 3-[2-(4-adamantan-1-yl-phenoxy)-acetylamino]-4-hydroxy-benzamide], the IC50 is greater than 30 µM in the series with HIF-1 [1] and 1.5 µM in the series on HIF-1 [2]. For `O=C(COc1ccc(Br)cc1)Nc1cccc(C(=O)O)c1` [Example 57, 3-[2-(4-bromo-phenoxy)-acetylamino]-benzoic acid] the same measures were greater than 30 µM and 1.6 µM. As for `O=C(COc1ccc(C23CC4CC(CC(C4)C2)C3)cc1)Nc1cc(C(=O)NCCCn2ccnc2)ccn1` [Example 107, 2-[2-(4-adamantan-1-yl-phenoxy)-acetylamino]-N-(3-imidazole-1-yl-propyl)-isonicotinamide], the IC50 in the series with HIF-1 [3] was less than 1 µM. On to `O=C(COc1ccc(F)cc1)Nc1cccc(C(=O)O)c1` [Example 51, 3-[2-(4-fluoro-phenoxy)acetylamino]-benzoic acid], for which the IC50 in the series with HIF-1 [1] and in the series with HIF-1 [2] was greater than 30 µM each time. For `COC(=O)c1cncc(NC(=O)COc2ccc(C34CC5CC(CC(C5)C3)C4)cc2)c1` [Example 87, 5-[2-(4-adamantan-1-yl-phenoxy)acetylamino]-nicotinic acid methyl ester], the IC50 is 5.9 µM in the series with HIF-1 [1], 5 µM in the series on HIF-1 [2] and greater than 30 µM in the series on HIF-1 [3]. In the series on HIF-1 [3], `O=C(COc1ccc(C23CC4CC(CC(C4)C2)C3)cc1)Nc1cc(C(=O)NCCc2ccncc2)ccn1` [Example 106, 2-[2-(4-adamantan-1-yl-phenoxy)-acetylamino]-N-(2-pyridine-4-yl-ethyl)-isonicotinamide] displayed a 50% inhibitory concentration (IC50) of 3.4 µM. Regarding `COC(=O)c1cccc(NC(=O)COc2ccc(C34CC5CC(CC(C5)C3)C4)cc2)c1` [Example 2, 3-[2-(4-Adaman-1-yl-phenoxy)-acetylamino]-benzoic acid methyl ester], the IC50 turned out to be 9.9 µM with HIF-1 [1] and 7.4 µM with HIF-1 [2].

With `CC(C)(C)c1ccc(OCC(=O)Nc2cccc(C(N)=O)c2)cc1` [Example 30, 3-[2-(4-tert-butyl-phenoxy)-acetyl-amino]-benzamide], the IC50 in the series on HIF-1 [1] and in the series on HIF-1 [2] was greater than 30 µM in each case. With `O=C(COc1ccc(Cl)cc1)Nc1cccc(C(=O)O)c1` [Example 52, 3-[2-(4-chloro-phenoxy)-acetylamino]-benzoic acid], the half-maximal inhibitory concentration (IC50) is greater than 30 µM in the series with HIF-1 [1] and 10 µM in the series on HIF-1 [2]. Consider `Cc1ccc(OCC(=O)Nc2cccc(C(N)=O)c2)cc1` [Example 31, 3-(2-p-tolyloxy-acetyl-amino)-benzamide], for which the IC50 in the series on HIF-1 [1] and in the series on HIF-1 [2] was greater than 30 µM each time. Take `O=C(COc1ccc(Cl)cc1Cl)Nc1cc(C(=O)O)ccn1` [Example 95, 2-[2-(2,4-dichloro-phenoxy)-acetylamino]-isonicotinic acid]: the “inhibition of the growth of the cancer cells compared to the control” value in series [4] (20 mg/kg) is reported as 4.3%; in series [4] (50 mg/kg), 36.5%. In addition, in series [4] (50 mg/kg), the “deaths in six mice of each group” value was “No dead were observed”.

Consider `O=C(COc1ccc(Cl)cc1Cl)Nc1cccc(C(=O)NCc2ccco2)c1` [Example 77, 3-[2-(2,4-dichloro-phenoxy)-acetylamino]-N-furan-2-ylmethyl-benzamide], for which the IC50 is greater than 30 µM in the series on HIF-1 [1] and 35 µM in the series on HIF-1 [2]. As for `CN(C)C(=O)c1ccc(O)c(NC(=O)COc2ccc(C34CC5CC(CC(C5)C3)C4)cc2)c1` [Example 66, 3-[2-(4-adamantan-1-yl-phenoxy)-acetylamino]-4-hydroxy-N,N-dimethyl-benzamide], the half-inhibitory concentration (IC50) in the series with HIF-1 [1] and with HIF-1 [2] was greater than 30 µM each time. With `O=C(COc1ccc(C23CC4CC(CC(C4)C2)C3)cc1)Nc1cncc(C(=O)NCCc2ccncc2)c1` [Example 102, 5-[2-(4-adamantan-1-yl-phenoxy)acetylamino]-N-(2-pyridine-4-yl-ethyl)nicotinamide], the IC50 in the series on HIF-1 [3] was greater than 30 µM. Take `O=C(COc1ccc(C23CC4CC(CC(C4)C2)C3)cc1)Nc1cc(C(=O)Nc2ccc(Cl)cc2)ccn1` [Example 104, 2-[2-(4-adamantan-1-yl-phenoxy)-acetylamino]-N-(4-chloro-phenyl)-isonicotinamide]: the IC50 with HIF-1 [3] amounted to 2.5 µM. Take `CC(=O)c1ccc(OCC(=O)Nc2cccc(C(=O)O)c2)cc1` [Example 60, 3-[2-(4-acetyl-phenoxy)-acetylamino]-benzoic acid]: the IC50 in the series on HIF-1 [1] and with HIF-1 [2] was greater than 30 µM each time. With `O=C(COc1ccc(C23CC4CC(CC(C4)C2)C3)cc1)Nc1cccc(C(=O)NCCc2ccncc2)c1` [Example 74], the IC50 with HIF-1 [1] amounted to 8.2 µM; in the series on HIF-1 [2], 3.1 µM.

For `NC(=O)c1cccc(NC(=O)COc2ccc([N+](=O)[O-])cc2)c1` [Example 32, 3-[2-(4-nitro-phenoxy)-acetyl-amino)benzamide], the IC50 with HIF-1 [1] and with HIF-1 [2] was greater than 30 µM throughout.

The values are drawn from US8394799B2, “Compounds that inhibit HIF-1 activity, the method for preparation thereof and the pharmaceutical composition containing them as an effective component” (Korea Research Institute of Bioscience and Biotechnology, priority 2006, dated 2013).
